Here are results for 9 molecules from patent US8889391B1 (Cargill, Incorporated, priority 2006, dated 2014).

Like-named read-outs stand apart in the source and are kept apart here.

In data set [1] the target is BAAT-3-HP dehydrogenase system: Streptomyces avermitilis BAAT variant BAAT5-9 (P3H, S24T, D110N, F113L, A133T), SEQ ID NO: 19, coupled with P. putida 3-HP dehydrogenase (PpmmsB31), SEQ ID NO: 27 (Streptomyces avermitilis, UniProt Q82ER2, D110N/F113L/P3H/S24T). The data set can be described thus: biochemical. Conditions: pH 8, read-out: reduction of activity of the BAAT-3-HP dehydrogenase system. As to the method: The effect of acetate on the in vitro biological activity of BAAT enzymes in cell extracts was also measured using a coupled assay in which the malonyl semialdehyde product of the reaction catalyzed by BAAT was reduced by a 3-HP dehydrogenase. An extract of cells carrying the integrated BAAT5-9/PpmmsB31 was made by resuspending cells collected by centrifugation with Bugbuster (EMD/Novagen, Madison Wis.) as described by the manufacturer. […] The progress of the reaction was monitored as the decrease in A340 due to oxidation of the NADH. The effect of acetate or pyruvate was determined by adding up to 20 mM of either compound (as the neutral Na^+ salt).

The test system of data set [2] is BAAT (BAAT5-9) in E. coli 11303 Δpta ΔadhE ΔfrdABCD ΔldhA Δpan(C-D) ΔpoxB INT(BAAT5-9/PpmmsB31) carrying pCEC/SapanD. The data set can be described thus: microbe, parasite or virus in culture. Conditions: for inhibition at 20000 µM / inhibition at 100000 µM: Escherichia coli. The protocol: A culture of E. coli 11303 Δpta ΔadhE ΔfrdABCD ΔldhA Δpan(C-D) ΔpoxB INT(BAAT5-9/PpmmsB31) carrying the vector pCEC/SapanD was grown in LB media with chloramphenicol at 30° C. This culture was used to inoculate 20 mL modified Overnight Express media (Novagen) to an initial OD600 of 0.05 in a 125 mL flask. Modification to the media included the replacement of Solution 1 with glucose at a concentration of 0.1% and arabinose at 2%, and addition of 20 uM Ca^2+ pantothenate, 25 ug/mL chloramphenicol, 100 uM pyridoxine-HCl and 1 mM IPTG. […] Glucose biotransformation medium consisted of M9 salts, 100 mM MOPS pH 8, 1% glucose, 500 uM IPTG, and 50 uM pyridoxine-HCl.
For aerobic biotransformations, 900 uL of the resuspended culture was aliquoted to a 14 mL Falcon tube and the volume was brought to 1 mL with water and/or sodium acetate (pH 7). For anaerobic biotransformations, 1.35 mL of the resuspended culture was aliquoted to a 1.8 mL glass vial and the volume was brought to 1.5 mL with water and/or sodium acetate(pH 7). Final concentrations of sodium acetate added were 0, 20 mM, and 100 mM, and biotransformation incubations were at 30° C. with shaking at 225 rpm. […] Culture supernatants were acidified with 0.05 volumes of 90% formic acid, centrifuged, filtered, and analyzed for 3-HP production as described in Example 8.

The next data set deals with O=CCC(=O)O. Put plainly: purified protein, by the assay type. The note with it: other: purified enzyme; NADH is the preferred reductant.
Substrate in data set [3]: NCCC(=O)O
Put plainly: purified protein, by the assay type. It is filed as biochemical, Streptomyces avermitilis. Conditions: other: pH 8.0, 10 mM alpha-ketoglutarate, 25° C.

Substrate in data set [4]: NCCC(=O)O
The data set can be described thus: purified protein, by the assay type. Conditions: other: pH 8.0, 10 mM alpha-ketoglutarate, 25° C.

Substrate in data set [5]: O=CCC(=O)O
The data set can be described thus: ydfG dehydrogenase kinetics, purified enzyme. In kind it is biochemical, E. coli. Conditions: other: purified enzyme; NADPH is the only cofactor used; 58.0 °C. As to the method:
The ydfG gene was cloned into the pET28b vector (Novagen, Madison, Wis.) to allow purification and kinetic studies on purified protein. The primers used for this cloning had restriction sites added to allow cloning into NdeI and BamHI sites. […] (SEQ ID NO: 32) and […] (SEQ ID NO: 33). Fragment amplification was performed using Pfu DNA polymerase to minimize amplification errors, and used an annealing temperature of 58° C. A PCR product band of approximately 750 bp was gel-purified, digested with NdeI and BamHI, and ligated, using an NEB Quick Ligation method (New England BioLabs, Waverly Mass.), into pET28B vector that had been digested with the same enzymes. The ligation reaction was transformed into E. coli Electromax™ DH10B™ cells and plated on LB medium containing 25 μg/ml kanamycin. Plasmid DNA from a colony showing the correct insert size was sequenced and shown to be identical to the ydfG sequence from E. coli MG1655.

Where [6] appears, read: read-out: reduction in 3-HP from beta-alanine.
The mark [7] stands for this setting: read-out: reduction in 3-HP from glucose.

As for `CC(=O)O` [acetate], in data set [1], the inhibition at 10000 µM was roughly 50%. Further, in data set [2] (setting [6]), the inhibition at 20000 µM was determined as 22% and the inhibition at 100000 µM worked out at 47%. For the same molecule, in data set [2] (setting [7]), the inhibition at 20000 µM turned out to be 28% and the inhibition at 100000 µM came to 52%. Besides, the “reduction in 3-HP” value in data set [2] (anaerobic conditions, acetate added (20 mM and 100 mM)) was 8-29%.

`CC(=O)C(=O)O` [pyruvate]: the inhibition at 10000 µM in data set [1] is roughly 50%. The term Km denotes the concentration of substrate that gives half-maximal velocity. For the molecule “Pseudomonas aeruginosa 3-HP dehydrogenase (PammsB), SEQ ID NO: 21 (Pseudomonas aeruginosa PAO1)”, the Km in the data set on O=CCC(=O)O was 4.5 mM.

B1: Streptomyces avermitilis BAAT variant BAAT3ML (P3H, S24T, F113L, A133T), SEQ ID NO: 17 (Streptomyces avermitilis MA-4680 = NBRC 14893; F113L/P3H/S24T) (protein)
chain: MTHQPNPQVGAAVKAADRAHVFHTWSAQELIDPLAVAGAEGSYFWDYDGRRYLDFTSGLVFTNIGYQHPKVVAAIQEQAASLTTFAPAFAVEARSEAARLIAERTPGDLDKILFTNGGADAIEHAVRMARIHTGRPKVLSAYRSYHGGTQQAVNITGDPRRWASDSASAGVVHFWAPYLYRSRFYAETEQQECERALEHLETTIAFEGPGTIAAIVLETVPGTAGIMVPPPGYLAGVRELCDKYGIVFVLDEVMAGFGRTGEWFAADLFDVTPDLMTFAKGVNSGYVPLGGVAISGKIAETFGKRAYPGGLTYSGHPLACAAAVATINVMAEEGVVENAANLGARVIEPGLRELAERHPSVGEVRGVGMFWALELVKDRETREPLVPYNAAGEANAPMAAFGAAAKANGLWPFINMNRTHVVPPCNVTEAEAKEGLAALDAALSVADEYTV
On to B1, for which the Km in data set [3] is on record as 21 mM.

B2: Streptomyces avermitilis BAAT variant BAAT1 (S24T), SEQ ID NO: 6 (Streptomyces avermitilis MA-4680 = NBRC 14893; S24T) (protein)
chain: MTPQPNPQVGAAVKAADRAHVFHTWSAQELIDPLAVAGAEGSYFWDYDGRRYLDFTSGLVFTNIGYQHPKVVAAIQEQAASLTTFAPAFAVEARSEAARLIAERTPGDLDKIFFTNGGADAIEHAVRMARIHAGRPKVLSAYRSYHGGTQQAVNITGDPRRWASDSASAGVVHFWAPYLYRSRFYAETEQQECERALEHLETTIAFEGPGTIAAIVLETVPGTAGIMVPPPGYLAGVRELCDKYGIVFVLDEVMAGFGRTGEWFAADLFDVTPDLMTFAKGVNSGYVPLGGVAISGKIAETFGKRAYPGGLTYSGHPLACAAAVATINVMAEEGVVENAANLGARVIEPGLRELAERHPSVGEVRGVGMFWALELVKDRETREPLVPYNAAGEANAPMAAFGAAAKANGLWPFINMNRTHVVPPCNVTEAEAKEGLAALDAALSVADEYTV
With B2, the Km in data set [3] stood at 7.3 mM.

B3: Streptomyces avermitilis BAAT variant BAAT3 (S24T, F113L, A133T), SEQ ID NO: 12 (Streptomyces avermitilis MA-4680 = NBRC 14893; F113L/S24T) (protein)
chain: MTPQPNPQVGAAVKAADRAHVFHTWSAQELIDPLAVAGAEGSYFWDYDGRRYLDFTSGLVFTNIGYQHPKVVAAIQEQAASLTTFAPAFAVEARSEAARLIAERTPGDLDKILFTNGGADAIEHAVRMARIHTGRPKVLSAYRSYHGGTQQAVNITGDPRRWASDSASAGVVHFWAPYLYRSRFYAETEQQECERALEHLETTIAFEGPGTIAAIVLETVPGTAGIMVPPPGYLAGVRELCDKYGIVFVLDEVMAGFGRTGEWFAADLFDVTPDLMTFAKGVNSGYVPLGGVAISGKIAETFGKRAYPGGLTYSGHPLACAAAVATINVMAEEGVVENAANLGARVIEPGLRELAERHPSVGEVRGVGMFWALELVKDRETREPLVPYNAAGEANAPMAAFGAAAKANGLWPFINMNRTHVVPPCNVTEAEAKEGLAALDAALSVADEYTV
In the case of B3, in data set [3], the Km came out at 14.7 mM.

B4: Streptomyces avermitilis BAAT variant BAAT5-9 (P3H, S24T, D110N, F113L, A133T), SEQ ID NO: 19 (Streptomyces avermitilis MA-4680 = NBRC 14893; … (protein)
chain: MTHQPNPQVGAAVKAADRAHVFHTWSAQELIDPLAVAGAEGSYFWDYDGRRYLDFTSGLVFTNIGYQHPKVVAAIQEQAASLTTFAPAFAVEARSEAARLIAERTPGDLNKILFTNGGADAIEHAVRMARIHTGRPKVLSAYRSYHGGTQQAVNITGDPRRWASDSASAGVVHFWAPYLYRSRFYAETEQQECERALEHLETTIAFEGPGTIAAIVLETVPGTAGIMVPPPGYLAGVRELCDKYGIVFVLDEVMAGFGRTGEWFAADLFDVTPDLMTFAKGVNSGYVPLGGVAISGKIAETFGKRAYPGGLTYSGHPLACAAAVATINVMAEEGVVENAANLGARVIEPGLRELAERHPSVGEVRGVGMFWALELVKDRETREPLVPYNAAGEANAPMAAFGAAAKANGLWPFINMNRTHVVPPCNVTEAEAKEGLAALDAALSVADEYTV
As to B4, the Km in data set [3] is 25 mM.

B5: Streptomyces avermitilis beta-alanine/alpha-ketoglutarate aminotransferase (BAAT), wild type, SEQ ID NO: 4 (Streptomyces avermitilis MA-4680 = NBRC 14893) (protein)
chain: MTPQPNPQVGAAVKAADRAHVFHSWSAQELIDPLAVAGAEGSYFWDYDGRRYLDFTSGLVFTNIGYQHPKVVAAIQEQAASLTTFAPAFAVEARSEAARLIAERTPGDLDKIFFTNGGADAIEHAVRMARIHAGRPKVLSAYRSYHGGTQQAVNITGDPRRWASDSASAGVVHFWAPYLYRSRFYAETEQQECERALEHLETTIAFEGPGTIAAIVLETVPGTAGIMVPPPGYLAGVRELCDKYGIVFVLDEVMAGFGRTGEWFAADLFDVTPDLMTFAKGVNSGYVPLGGVAISGKIAETFGKRAYPGGLTYSGHPLACAAAVATINVMAEEGVVENAANLGARVIEPGLRELAERHPSVGEVRGVGMFWALELVKDRETREPLVPYNAAGEANAPMAAFGAAAKANGLWPFINMNRTHVVPPCNVTEAEAKEGLAALDAALSVADEYTV
Take B5: the Km in data set [4] amounted to 2.5 mM.

B6: E. coli ydfG protein, SEQ ID NO: 31 (Escherichia coli K-12) (protein)
chain: MIVLVTGATAGFGECITRRFIQQGHKVIATGRRQERLQELKDELGDNLYIAQLDVRNRAAIEEMLASLPAEWCNIDILVNNAGLALGMEPAHKASVEDWETMIDTNNKGLVYMTRAVLPGMVERNHGHIINIGSTAGSWPYAGGNVYGATKAFVRQFSLNLRTDLHGTAVRVTDIEPGLVGGTEFSNVRFKGDDGKAEKTYQNTVALTPEDVSEAVWWVSTLPAHVNINTLEMMPVTQSYAGLNVHRQ
As for B6, the Km in data set [5] came out at 3.7 mM.
